Results taken from the supplement of paper PMC10307832.

Tests used:
Experiment in all cases: relative viability (nuclei count vs DMSO), 5 days (fraction); higher = more cells survive
VX-11e + Navitoclax = compound: CC1=CN=C(N=C1C2=CNC(=C2)C(=O)N[C@H](CO)C3=CC(=CC=C3)Cl)NC4=C(C=C(C=C4)F)Cl [VX-11e] + CC1(C)CCC(c2ccc(Cl)cc2)=C(CN2CCN(c3ccc(C(=O)NS(=O)(=O)c4ccc(N[C@H](CCN5CCOCC5)CSc5ccccc5)c(S(=O)(=O)C(F)(F)F)c4)cc3)CC2)C1 [Navitoclax] (partner 0.5 µM)
Method in brief: (§1)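 For relative viability, nuclei counts in treated wells were divided by those in vehicle wells. Lung cancer cell lines had been pin-tool dosed in 1536-well plates the day after seeding and cultured for 5 days, then fixed and stained in one step (final 0.05% Triton X-100, 1% formaldehyde, 1 ug/ml Hoechst) and imaged at 4×. Doses were one drug alone or a fixed anchor-drug dose plus five library-drug doses (not always all listed) in √10 steps, and values are duplicate-plate medians.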

VX-11e + Crizotinib = compound: CC1=CN=C(N=C1C2=CNC(=C2)C(=O)N[C@H](CO)C3=CC(=CC=C3)Cl)NC4=C(C=C(C=C4)F)Cl [VX-11e] + C[C@@H](Oc1cc(-c2cnn(C3CCNCC3)c2)cnc1N)c1c(Cl)ccc(F)c1Cl [Crizotinib] (partner 1 µM)
Method in brief: as §1

VX-11e + Phenformin = compound: CC1=CN=C(N=C1C2=CNC(=C2)C(=O)N[C@H](CO)C3=CC(=CC=C3)Cl)NC4=C(C=C(C=C4)F)Cl [VX-11e] + N=C(N)NC(=N)NCCc1ccccc1 [Phenformin] (partner 250 µM)
Method in brief: as §1

VX-11e + Decitabine = compound: CC1=CN=C(N=C1C2=CNC(=C2)C(=O)N[C@H](CO)C3=CC(=CC=C3)Cl)NC4=C(C=C(C=C4)F)Cl [VX-11e] + Nc1ncn([C@H]2C[C@H](O)[C@@H](CO)O2)c(=O)n1 [Decitabine] (partner 2 µM)
Method in brief: as §1

Cell Line	relative viability (VX-11e + Navitoclax; first compound 0.04 µM)	relative viability (VX-11e + Navitoclax; first compound 0.1265 µM)	relative viability (VX-11e + Navitoclax; first compound 0.4 µM)	relative viability (VX-11e + Navitoclax; first compound 1.265 µM)	relative viability (VX-11e + Navitoclax; first compound 4 µM)	relative viability (VX-11e + Crizotinib; first compound 0.04 µM)	relative viability (VX-11e + Crizotinib; first compound 0.1265 µM)	relative viability (VX-11e + Crizotinib; first compound 0.4 µM)	relative viability (VX-11e + Crizotinib; first compound 1.265 µM)	relative viability (VX-11e + Crizotinib; first compound 4 µM)	relative viability (VX-11e + Phenformin; first compound 0.04 µM)	relative viability (VX-11e + Phenformin; first compound 0.1265 µM)	relative viability (VX-11e + Phenformin; first compound 0.4 µM)	relative viability (VX-11e + Phenformin; first compound 1.265 µM)	relative viability (VX-11e + Phenformin; first compound 4 µM)	relative viability (VX-11e + Decitabine; first compound 0.04 µM)	relative viability (VX-11e + Decitabine; first compound 0.1265 µM)	relative viability (VX-11e + Decitabine; first compound 0.4 µM)	relative viability (VX-11e + Decitabine; first compound 1.265 µM)	relative viability (VX-11e + Decitabine; first compound 4 µM)
LU99A	0.82	0.925	0.651	0.335	0.161	0.527	0.496	0.517	0.475	0.243	0.881	0.754	0.28	0.907	0.382	0.872	0.81	0.822	0.727	0.347
LXF-289	0.99	0.914	0.965	0.895	0.607	0.902	0.788	0.87	0.706	0.543	0.578	0.5	0.16	0.463	0.365	0.364	0.376		0.386	0.406
NCI-H23	1	0.859	0.467	0.459	0.243	0.422	0.504	0.416	0.347	0.32	0.682	0.701		0.666	0.436	0.279	0.312	0.306	0.284	0.22
NCI-H322M	1.24		1.23	1.06	0.672	1.08		0.942	0.987	0.699	0.691	0.507	0.7	0.661	0.534	0.737	0.723	0.683	0.607	0.614
NCI-H441	0.668	0.469		0.905	0.556	0.711	0.72		0.857	0.555	0.858	0.837		0.732	0.49	0.282	0.273		0.218	0.306
NCI-H460	1.37	1.16	1.13	0.542	0.0727	1.18	0.907	0.784	0.56	0.0797	0.588	0.471	0.127	0.174	0.0711	0.568	0.43	0.165	0.472	0.184
NCI-H520	0.963	1.04	1	1.38	0.992	0.773	0.748	0.741	0.914	0.59	0.505	0.483	0.449	0.752	0.479	0.539	0.533	0.492	0.668	0.476
NCI-H596	1.12	0.876	0.895	0.951	0.586	0.891	1.05	1.09	0.939	0.722	0.648	0.791	0.8	0.369	0.599	0.864	1.05	1.01	0.998	0.834
NCI-H647	1.08	1.09	0.904	0.663	0.522	1.1	0.916	1.01	0.608	0.523	0.677	0.442	0.249	0.266	0.196	0.378	0.355	0.349	0.537	0.449
NCI-H727	0.395	0.332	0.283	0.167	0.115	0.722	0.847	0.712	0.419	0.243	0.439	0.475	0.451	0.359	0.353	0.599	1.07	0.72	0.638	0.421
NCI-H838	1.17	1.1	1.05	1.1	0.861	0.888	0.82	0.798	0.881	0.501	0.539	0.604	0.17	0.445	0.379	0.44	0.428	0.447	0.474	0.524
NCI-H1355	0.92	0.891	0.945	0.695	0.333	1.1	0.993	1.09	0.875	0.479	0.417	0.435	0.34	0.379	0.348	0.401	0.376	0.34	0.413	0.31
NCI-H1437	1.11	1.05	1.07	0.815	0.52	1.05	0.957	0.853	0.974	0.487	0.334	0.257	0.226	0.297	0.225	0.589	0.519	0.517	0.602	0.494
NCI-H1650	1.21	1.07	1.08	0.856	0.374	1.06	0.87	0.751	0.912	0.874	0.478	0.343		0.315	0.295	0.523	0.406	0.468	0.522	0.526
NCI-H1651	1.06	1.1	0.968	0.893	0.939	0.916	0.821	0.826	0.768	0.812	0.347	0.301	0.23	0.314	0.305	0.445	0.633	0.541	0.497	0.59
NCI-H1666	0.987	1.1	0.848	0.51	0.368	1.03	0.818	0.753	0.752	0.456	0.556	0.554	0.478	0.569	0.503	0.636	0.769	0.541	0.671	0.598
